Assay results from patent publication US11534441B2, “MAP4K1 inhibitors” (Blueprint Medicines Corporation, priority 2020, dated 2022).

Assays:
expanded CD3+ T cells = test: T cell enhancement of cytokines: IL2 measurement (HTRF) in expanded CD3+ T cells stimulated with anti-CD3/anti-CD28; type: cell-based, human; conditions: IL-2 measurement
Method: T cells are isolated from whole blood of healthy donors by immunomagnetic negative selection following manufacture's protocol (StemCell Technologies, human T cell isolation kit). Purity of isolated cells is assessed by flow cytometry and yields 95-98% CD3^+ T cells. For expansion of T cells, 1×10^6 cells/well are plated in serum free cell expansion media (ThermoFisher) containing 30 U of recombinant human IL2 (R&D) and stimulated with 25 ul of CD3/CD28 beads (Invitrogen) in 24 well plates for 3-4 days. T cells are then expanded in 175 cm flasks and maintained at a cell density of 1 to 2.5×10^6 cells/ml days by addition of ⅔ of fresh media every 2-3 days. After 10-14 days, cells are frozen in BamBanker freezing media (Thermo) and stored in liquid nitrogen.
For IL2 measurement, expanded CD3^+ T cells are dispensed at 100K cells/well (cultured in X-VIVO 10 Serum-free media) and are stimulated with plate-bound anti-CD3 and soluble anti-CD28 in the presence of vehicle or compound of the disclosure at various concentrations for 24 h. As outlined in the manufacturer's protocol (Cisbio), 16 μL of conditioned media is transferred to a white 384-well low volume plate. Following a 24 h incubation with the anti-IL2 antibodies, the homogenous time resolved fluorescence (HTRF) is measured.

MAP4K1 (HPK1) = MAP4K1 (HPK1) (Homo sapiens (Human), UniProt Q92918); test: MAP4K1 (HPK1) biochemical enzymatic activity, electrophoretic mobility shift (EZReader 2), ATP at APPKM (26 μM)
In short: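 Enzyme at 0.1-15 nM was incubated with 1.5 μM fluorescent peptide and ATP at the apparent Km (26 μM) in HEPES pH 7.5, MgCl2, DTT and Brij 35. The reaction ran at 25° C for 60-180 min with a 10-point, 4-fold compound series (1% DMSO) and was stopped with EDTA. Substrate and product peptides were resolved by microfluidic mobility shift, and their peak ratio gave activity.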

[1] = Homo sapiens, T-cell, class designation
[2] = Homo sapiens, T-cell, numeric value

Chain of MAP4K1 (HPK1) (Q92918 whole entry): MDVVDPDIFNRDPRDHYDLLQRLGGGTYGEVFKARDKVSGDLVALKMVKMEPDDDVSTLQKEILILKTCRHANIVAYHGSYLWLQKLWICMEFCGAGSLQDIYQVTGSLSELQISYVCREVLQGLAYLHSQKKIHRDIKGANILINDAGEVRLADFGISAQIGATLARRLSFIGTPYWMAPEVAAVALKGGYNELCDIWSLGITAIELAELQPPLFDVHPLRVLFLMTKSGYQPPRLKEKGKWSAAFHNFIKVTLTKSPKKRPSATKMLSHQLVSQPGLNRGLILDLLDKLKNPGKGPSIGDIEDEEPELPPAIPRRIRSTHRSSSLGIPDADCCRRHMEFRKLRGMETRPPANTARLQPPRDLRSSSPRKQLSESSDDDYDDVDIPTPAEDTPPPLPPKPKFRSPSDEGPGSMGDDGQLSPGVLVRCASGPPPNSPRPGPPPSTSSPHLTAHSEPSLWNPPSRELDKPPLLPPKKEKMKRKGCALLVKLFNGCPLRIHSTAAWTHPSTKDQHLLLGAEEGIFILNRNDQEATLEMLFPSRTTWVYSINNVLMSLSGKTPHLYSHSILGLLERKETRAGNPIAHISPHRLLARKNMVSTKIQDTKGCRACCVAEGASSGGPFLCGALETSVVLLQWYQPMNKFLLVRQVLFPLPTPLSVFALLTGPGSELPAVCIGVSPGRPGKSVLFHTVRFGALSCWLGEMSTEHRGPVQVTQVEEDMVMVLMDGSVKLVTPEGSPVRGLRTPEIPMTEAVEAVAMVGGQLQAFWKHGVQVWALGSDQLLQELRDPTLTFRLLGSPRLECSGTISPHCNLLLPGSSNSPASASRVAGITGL

Row | Structure (SMILES) | EC50 (expanded CD3+ T cells; class designation) [nM] | EC50 (expanded CD3+ T cells; numeric value) [nM] | IC50 (MAP4K1 (HPK1); class designation) [nM] | IC50 (MAP4K1 (HPK1); numeric value) [nM] | EC50 (expanded CD3+ T cells; [1]) [nM] | EC50 (expanded CD3+ T cells; [2]) [nM]
1 | CNc1ncc(C(C)(C)N)c2cc(Nc3ccc4c(n3)CC(C)(C)OC4=O)ncc12 [Compound 35] | < 35 | 23.5 | 0.31 to 1 | 0.41 | – | –
2 | COc1ncc(C(C)(C)N)c2cc(Nc3ccc4c(n3)CC(C)(C)OC4=O)ncc12 [Compound 36] | – | – | < 0.3 | 0.17 | < 35 | 15.3
3 | COc1ncc(C(C)(C)N)c2cc(Nc3ccc4c(n3)[C@@H](C)[C@H](C)OC4=O)ncc12 [Compound 37] | – | – | < 0.3 | 0.14 | < 35 | 1.9
4 | COc1ncc(C(C)(C)N)c2cc(Nc3ccc4c(n3)[C@H](C)[C@@H](C)OC4=O)ncc12 [Compound 38] | – | – | < 0.3 | 0.2 | < 35 | 5.8
5 | CCOc1ncc(C(C)(C)N)c2cc(Nc3ccc4c(n3)C(C)(C)OC4=O)ncc12 [Compound 45] | – | – | 0.31 to 1 | 1.03 | > 55 | 70.3
6 | COc1cnc(C(C)(C)N)c2cc(Nc3ccc4c(n3)CC(C)(C)OC4=O)ncc12 [Compound 46, 2-((5-(2-Aminopropan-2-yl)-8-methoxy-2,6-naphthyridin-3-yl)amino)-7,7-dimethyl-7,8-dihydro-5H-pyrano[4,3-b]pyridin-5-one] | – | – | 0.31 to 1 | 0.94 | < 35 | 34.3
7 | CNc1ncc(C(C)(C)N)c2cc(Nc3cnc(C#N)c(N4CCC[C@@H]4C)n3)ncc12 [Compound 48] | – | – | 1.1 to 10 | 1.72 | > 55 | 136
8 | CCNc1ncc(C(C)(C)N)c2cc(Nc3ccc4c(n3)CC(C)(C)OC4=O)ncc12 [Compound 53] | – | – | 0.31 to 1 | 0.36 | < 35 | 17.2
9 | CCOc1ncc(C(C)(C)N)c2cc(Nc3ccc4c(n3)CC(C)(C)OC4=O)ncc12 [Compound 54] | – | – | < 0.3 | 0.25 | < 35 | 9.3
10 | COc1ncc(C(C)(C)N)c2cc(Nc3ccc4c(n3)[C@H](C)C(C)(C)OC4=O)ncc12 [Compound 55] | – | – | < 0.3 | 0.18 | < 35 | 11.6
11 | COc1ncc(C(C)(C)N)c2cc(Nc3ccc4c(n3)[C@@H](C)C(C)(C)OC4=O)ncc12 [Compound 56] | – | – | < 0.3 | 0.1 | < 35 | 6.6
12 | CCOc1ncc(C(C)(C)N)c2cc(Nc3ccc4c(n3)[C@@H](C)[C@H](C)OC4=O)ncc12 [Compound 57] | – | – | < 0.3 | 0.16 | < 35 | 5.1
13 | CCOc1ncc(C(C)(C)N)c2cc(Nc3ccc4c(n3)[C@H](C)[C@@H](C)OC4=O)ncc12 [Compound 58] | – | – | 0.31 to 1 | 0.39 | < 35 | 20.4
14 | CC1(C)Cc2nc(Nc3cc4c(C(C)(C)N)cnc(OC5CC5)c4cn3)ccc2C(=O)O1 [Compound 64] | – | – | 0.31 to 1 | 0.44 | 35.1 to 45 | 42.9
15 | C[C@@H]1OC(=O)c2ccc(Nc3cc4c(C(C)(C)N)cnc(OC5CC5)c4cn3)nc2[C@H]1C [Compound 66, (7S, 8R)-2-((5-(2-aminopropan-2-yl)-8-cyclopropoxy-2,7-naphthyridin-3-yl)amino)-7,8-dimethyl-7,8-dihydro-5H-pyrano[4,3-b]pyridin-5-one] | – | – | < 0.3 | 0.18 | < 35 | 8.1
16 | CCOc1ncc(C(C)(C)N)c2cc(Nc3ccc4c(n3)[C@@H](C)C(C)(C)OC4=O)ncc12 [Compound 67] | – | – | < 0.3 | 0.12 | < 35 | 6.2
17 | CCOc1ncc(C(C)(C)N)c2cc(Nc3ccc4c(n3)[C@H](C)C(C)(C)OC4=O)ncc12 [Compound 68] | – | – | < 0.3 | 0.27 | < 35 | 29.5
18 | CC(C)Oc1ncc(C(C)(C)N)c2cc(Nc3ccc4c(n3)CC(C)(C)OC4=O)ncc12 [Compound 69] | – | – | 0.31 to 1 | 0.88 | 45.1 to 55 | 52.8
19 | C[C@H]1c2nc(Nc3cc4c(C(C)(C)N)cnc(OC5CC5)c4cn3)ccc2C(=O)OC1(C)C [Compound 70] | – | – | 0.31 to 1 | 0.35 | < 35 | 20.6
